Data on 10 molecules can be found in patent publication US10941399B2, “Methods and compositions for gene-specific demethylation by DNA methyltransferase (DNMT)-RNA interaction” (Beth Israel Deaconess Medical Center, Inc., priority 2011, dated 2021).

Entries after “also recorded” stand apart in the source; their conditions may differ. [5mC] = 5-methylcytosine Bounds are passed on as bounds.

One data set concerns HL-60 cells. Kind of data set: DRB and ML-60218 treatment of HL-60 cells, transcript levels by Taqman qRT-PCR. It counts as cell-based, human. How it is done:
qRT-PCR: Sybr green reactions were performed using iQ Sybr Green supermix (Biorad, Hercules, Calif.) using the following parameters: 95° C. (10 min.), 40 cycles of 95° C. (15 sec.) and 60° C. (1 min.), and 72° C. (1 min.). TaqMan analysis was performed using Hotstart Probe One-step qRT-PCR master mix (USB) at the following conditions: 50° C. (10 min.), 95° C. (2 min.), and then 40 cycles of 95° C. (15 sec.) and 60° C. (60 sec.). qRT PCR primers were located in the coding region for the mRNA (black double headed arrow) and after the polyA signal for the ecRNA (white double headed arrow) (FIG. 1A). The sequences of primers used for TaqMan real time PCR were as follows: human C/EBPa: Forward 5′-TCG GTG GACAAG AAC AG-3′ (SEQ ID NO:18), Reverse 5′-GCA GGC GGT CAT TG-3′ (SEQ ID NO:19), and Taqman Probe 5′-ACA AGGCCA AGC AGC GC-3′ (SEQ ID NO:20); ecRNA: Forward 5′-GGTTGTCTGTGGGCCAGGTCA-3′(SEQ ID NO:21), Reverse 5′-AGAGCTCATGAAAGTCAGGATTG-3′ (SEQ ID NO:22), and Taqman Probe 5′-AAT AAT ACAGCA TTT TCC CTG GCG G-3′(SEQ ID NO:23); human C/EBPγ: Forward: 5′-GGC TAG AGG AGC AGGTAC AT-3′ (SEQ ID NO:24), Reverse: 5′-GCCTGGGTATGGATAACACTA-3′ (SEQ ID NO:25), and Taqman Probe: 5′-CGACAC CAC TCA TGT CAA TGG CTG-3′ (SEQ ID NO:26); human TP73: ABI Cat. #Hs01060631_m1; 18S rRNA: ABI Cat. #4310893E; and human 5S rRNA: ABI Cat. #Hs02385257_g1. The sequences of primers used for real-time RT PCR (Sybr) were as follows: human C/EBPa: Forward: 5′-CCG CTC CTCCAC GCC TGT CCT TAG-3′ (SEQ ID NO:27) and Reverse: 5′-GCCCCACAGCCAGATCTCTAGGTC-3′ (SEQ ID NO:28); ecRNA: Forward: 5′-TCATGAGCTCTCCATCCATCCTGA-3′(SEQ ID NO:29) and Reverse: 5′-CTG GCCGAG GGT CCT GCT GGA ATC-3′ (SEQ ID NO:30); and β-ACTIN Promega Cat. #G5740.
Double thymidine block (early S-phase block): HL-60 cells were grown overnight to 70-80% confluence, washed twice with 1×PBS, and cultured in DMEM (10% FCS)+2.5 mM thymidine for 18 h (first block). Thymidine was washed out with 1×PBS, and cells were grown in DMEM (10% FCS). After 8 hours, cells were cultured in presence of thymidine for 18 h (second block) and then released as described. Synchrony was monitored by flow cytometry analysis of propidium iodide-stained cells using a LSRII flow cytometer (BD Biosciences) at the Harvard Stem Cell Institute/Beth Israel Deaconess Center flow cytometry facility.
DRB and ML-60218 treatment: After release from double thymidine block, HL-60 cells were treated with 100 μM of 5,6-Dichlorobenzimidazole 1-β-D-ribofuranoside (DRB) (Sigma Aldrich) for 1, 2, and 3 hours. HL-60 cells were treated with 25 μM ML-60218 (2-chloro-N[5-(5-chloro-3-methyl-1-benzothiophen-2-yl)-2-methylpyrazol-3-yl]benzenesulfonamide, Calbiochem®) for 24 hours. Total RNA was harvested as described above and expression levels of C/EBPa, ecRNA, and 5S were measured by Taqman qRT-PCR.
On the technique in general: In qPCR the cycle at which signal appears reflects the starting amount.

The next data set deals with DNMT1 (Homo sapiens, UniProt P26358). Nature of the data set: Electrophoretic gel mobility shift assays (EMSA/REMSA) and Kd determination with purified DNMT1. It counts as binding. On the set-up: purchased BPS Bioscience Inc. To be noted: for Kd: constant oligonucleotide concentration (1 nM) titrated with increasing DNMT1, nonlinear regression, read-out: dissociation constant (Kd). How it is done:
Electrophoretic gel mobility shift assays (EMSAs) and Kd determination: DNA and RNA oligonucleotides (15 pmol) were end-labeled with [γ-32P] ATP (Perkin Elmer) and T4 polynucleotide kinase (New England Biolabs). Reactions were incubated at 37° C. for 1h and then passed through G-25 spin columns (GE Healthcare) according to the manufacturer's instructions to remove unincorporated radioactivity. Labeled samples were gel-purified on 10% polyacrylamide gels. Binding reactions were carried out in 10 μL volumes in the following buffer: 5 mM Tris pH 7.4, 5 mM MgCl2, 1 mM DTT, 3% v/v glycerol, 100 mM NaCl. Various amounts of purified DNMT1 protein (BPS Bioscience Inc., 0.021-0.156 μM) were incubated with 1.1 nM of 32P-labeled dsDNA and ss/ds RNAs. In the competitive assay, a fixed amount of protein and increasing amounts of competitors (dsDNA or poly (dI-dC)) were used. All reactions were assembled on ice and then incubated at room temperature. Samples were loaded onto 6% native polyacrylamide gels (0.5×TBE) at 4° C. for 3 h at 140 V. Gels were dried and exposed to X-ray film and a PhosphorImager screen. Data were analyzed with ImageQuant software. For affinity assays, the percent shifted species was determined as follows: the migration of the labeled DNA in this reaction was defined as zero percent shifted and the ratio of the PhosphorImager counts in the area of the lane above this band to the total counts in the lane was defined as background and subtracted from all other lanes. This band represented total input. Subsequent lanes containing DNMT1-nucleic acid complexes were treated identically, and the percentage complex formation was calculated as follows: [Input-(free probe for each lane+background/input)]. All experiments contained a control reaction lacking DNMT1. The percentage complex formation was plotted as a function of DNMT1 concentration using nonlinear regression analysis using Prism 4.0a.
Background: A gel shift assay detects complexes by their altered migration in electrophoresis.

The test system of another data set is myeloma cells. To be noted: cited from earlier work.
Where [1] appears, read: 100 μM DRB, 1, 2, 3 h after release from double thymidine block.

Sequence of DNMT1 (P26358 whole entry): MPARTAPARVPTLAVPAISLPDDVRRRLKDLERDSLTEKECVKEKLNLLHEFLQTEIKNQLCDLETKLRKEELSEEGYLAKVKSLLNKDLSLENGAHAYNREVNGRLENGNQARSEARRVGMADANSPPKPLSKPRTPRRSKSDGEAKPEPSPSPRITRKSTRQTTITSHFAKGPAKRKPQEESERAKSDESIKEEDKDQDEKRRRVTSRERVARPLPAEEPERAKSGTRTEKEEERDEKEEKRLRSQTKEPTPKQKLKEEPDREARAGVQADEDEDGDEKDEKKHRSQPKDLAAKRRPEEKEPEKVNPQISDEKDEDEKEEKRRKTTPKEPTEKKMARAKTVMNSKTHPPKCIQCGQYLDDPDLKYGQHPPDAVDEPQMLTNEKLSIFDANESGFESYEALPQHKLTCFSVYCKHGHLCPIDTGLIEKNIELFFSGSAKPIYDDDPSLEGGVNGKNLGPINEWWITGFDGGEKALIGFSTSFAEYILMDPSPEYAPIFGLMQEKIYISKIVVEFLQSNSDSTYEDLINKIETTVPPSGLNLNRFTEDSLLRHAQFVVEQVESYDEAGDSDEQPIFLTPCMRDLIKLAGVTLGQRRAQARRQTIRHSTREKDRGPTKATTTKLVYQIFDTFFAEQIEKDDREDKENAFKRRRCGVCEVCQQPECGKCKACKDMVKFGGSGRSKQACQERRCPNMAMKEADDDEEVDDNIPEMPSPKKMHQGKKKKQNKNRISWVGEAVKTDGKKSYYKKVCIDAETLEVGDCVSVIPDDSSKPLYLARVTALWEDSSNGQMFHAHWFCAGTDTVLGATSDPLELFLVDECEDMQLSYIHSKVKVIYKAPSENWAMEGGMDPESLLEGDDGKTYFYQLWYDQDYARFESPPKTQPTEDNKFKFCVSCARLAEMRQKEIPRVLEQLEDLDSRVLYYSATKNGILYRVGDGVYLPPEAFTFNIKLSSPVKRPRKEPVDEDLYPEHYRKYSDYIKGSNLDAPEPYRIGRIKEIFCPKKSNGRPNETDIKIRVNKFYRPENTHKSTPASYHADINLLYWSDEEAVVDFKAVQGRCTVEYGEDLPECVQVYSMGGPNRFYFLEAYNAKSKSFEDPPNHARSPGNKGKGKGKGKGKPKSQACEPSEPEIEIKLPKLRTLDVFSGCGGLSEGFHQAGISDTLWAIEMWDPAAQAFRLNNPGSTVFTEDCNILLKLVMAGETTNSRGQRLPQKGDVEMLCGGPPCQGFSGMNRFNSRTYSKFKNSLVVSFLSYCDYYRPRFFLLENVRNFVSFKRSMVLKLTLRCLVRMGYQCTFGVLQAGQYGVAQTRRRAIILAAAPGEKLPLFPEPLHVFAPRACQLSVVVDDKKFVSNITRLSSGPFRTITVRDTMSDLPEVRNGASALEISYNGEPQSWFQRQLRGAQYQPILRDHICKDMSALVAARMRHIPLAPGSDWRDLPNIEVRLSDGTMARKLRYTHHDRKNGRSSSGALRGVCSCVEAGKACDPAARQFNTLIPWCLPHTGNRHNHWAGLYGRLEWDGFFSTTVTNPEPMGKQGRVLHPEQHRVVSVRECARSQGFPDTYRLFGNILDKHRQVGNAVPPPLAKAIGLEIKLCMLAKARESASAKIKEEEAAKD

Take `Cc1c(-c2cc(NS(=O)(=O)c3ccccc3Cl)n(C)n2)sc2ccc(Cl)cc12` [ML-60218, 2-chloro-N[5-(5-chloro-3-methyl-1-benzothiophen-2-yl)-2-methylpyrazol-3-yl]benzenesulfonamide]: in the data set with HL-60 cells (25 μM ML-60218, 24 hours), the “5S rRNA level” value is on record as “significantly reduced”, the “C/EBPa mRNA level” value is reported as “little effect; also recorded: only moderately affected” and the ecRNA level entry was “marked down-regulation; also recorded: significantly reduced”. Regarding “mutated R01: R01 with C to U substitutions in CpG dinucleotides (SEQ ID NO:69) (CUGGGAUGCAGGUGGUGUCAGGC; chemistry not given here; listed as Homo sapiens)”, the “DNMT1 binding after C to U substitution of CpG dinucleotides” value in the data set with DNMT1 (stem-and-loop-like structure preserved) was “not affected”. With `OC[C@H]1O[C@@H](n2cnc3cc(Cl)c(Cl)cc32)[C@H](O)[C@@H]1O` [DRB, 5,6-Dichlorobenzimidazole 1-β-D-ribofuranoside], in the data set with HL-60 cells (setting [1]), the “C/EBPa mRNA expression level” value is recorded as “strong down-regulation” and the ecRNA expression level result is on record as “no decrease; also recorded: did not reduce”. With “R04: ssRNA oligonucleotide of C/EBPa ecRNA, positions 4777-4798 of SEQ ID NO:8 (SEQ ID NO:63), lacking stem-and-loop-like structures (UCACACACACCGCAGCUCCAGA; chemistry not given here; listed as Homo sapiens)”, in the data set with DNMT1, the “DNMT1 binding affinity in REMSA (in words)” value is “did not display the same binding affinity as folded RNA; also recorded: lower DNMT1 affinity compared to R05”. With “umDNA: unmethylated dsDNA probe (SEQ ID NOs:64, 71) (chain 1 CTGAGGCCTTGGCGAGGCTTCT; chain 2 AGAAGCCTCGCCAAGGCCTCAG; DNA, backbone not given here; listed as Homo sapiens)”, the Kd with DNMT1 (EMSA) was found to be 82 nM. Turning to `Nc1ncn([C@H]2C[C@H](O)[C@@H](CO)O2)c(=O)n1` [5-aza-2′-deoxycytidine], in the data set on myeloma cells, the PU.1 expression entry was “upregulation” and the “growth of myeloma cells” value is recorded as “growth arrest”. As to “RNA: folded ssRNA oligonucleotide of C/EBPa ecRNA, positions 4627-4648 of SEQ ID NO:8 (SEQ ID NO:62) (CUGAGGCCUUGGCGAGGCUUCU; chemistry not given here; listed as Homo sapiens)”, the Kd in the data set with DNMT1 (EMSA) came out at 45 nM. The “DNMT1 concentration at which initial complex is formed” value with DNMT1 (EMSA, increasing DNMT1 concentrations) was below 0.013 µM. For the same molecule, the “strength of DNMT1 complex with RNA compared to hmDNA and mDNA” value in the data set with DNMT1 (ratio versus hmDNA and mDNA) is recorded as 3 fold. In the data set with DNMT1 (ratio versus umDNA), the “strength of DNMT1 complex with RNA compared to umDNA” value was determined as 2 fold.

Regarding `NCCCNCCCCNCCCN` [spermine], the “effect of spermine on RNA-DNMT1 binding” value at DNMT1 (REMSA with increasing concentrations of spermine) was “Only a thousand-fold molar excess of spermine began to moderately affect the binding; also recorded: no significant changes in binding were observed”. For the molecule “hmDNA: hemimethylated dsDNA probe (SEQ ID NOs:65, 72) (chain 1 CTGAGGCCTTGGCGAGGCTTCT; chain 2 AGAAGCCTCGCCAAGGCCTCAG; chain 1: DNA, [5mC] at 13, backbone and methylation of C not given here; chain 2: DNA, backbone not given here; listed as Homo sapiens)”, the dissociation constant Kd in the data set with DNMT1 (EMSA) worked out at 140 nM. The same measure, in the same setting: as for “mDNA: methylated dsDNA probe (SEQ ID NOs:66, 73) (chain 1 CTGAGGCCTTGGCGAGGCTTCT; chain 2 AGAAGCCTCGCCAAGGCCTCAG; chain 1: DNA, [5mC] at 13, backbone not given here; chain 2: DNA, [5mC] at 9, backbone not given here; listed as Homo sapiens)”, the figure is 110 nM.

As a reminder, the Kd is the free concentration of one partner at which half of the binding sites on the other are occupied at equilibrium, for simple one-to-one binding.
